Laboratory results as given in patent US8791145B2, “Agricultural formulations with acyl morpholines and polar aprotic co-solvents” (Akzo Nobel Chemicals International B.V., priority 2010, dated 2014).

Key:
[1] = Solubility in acyl morpholines; assay type: physicochemical; details: 23° C.
Description: Various agriculturally active ingredients were dissolved in N-formyl morpholine, N-acetyl morpholine and N-propionyl morpholine in order to evaluate the solubility of the active ingredients in the solvents. This was done by adding the active ingredient to a beaker and thereafter adding the solvent until a clear solution was obtained. The solutions were continually stirred at a temperature of 23° C. during the experiments. When everything had been dissolved, the beakers were left without stirring for 24 h to see if the solution was stable (i.e. no crystallization).

[2] = Dilution of Imidacloprid formulation in water, ocular inspection; assay type: physicochemical; set-up: key: +: easily dissolved; −: permanent crystals; NS: Non soluble; details: 200 g/l diluted to 0.4 g/l
From the text: Formulations containing 200 g/l of Imidacloprid was formulated together with 40 g/l of an alcohol ethoxylate (2-propylheptanol ethoxylated with 8 moles of EO per mole of alcohol) and diluted to a final volume of one liter with each one of the solvents N-formyl morpholine, N-acetyl morpholine and N-propionyl morpholine along with a co-solvent. The co-solvents used were dimethylsulfoxide (DMSO), propylene carbonate (PC), dimethylformamide (DMF) and ethyl lactate (EL). Ethyl lactate is a protic solvent and is included in the experiment for comparison. The amount of each co-solvent, in % by weight of the total weight of morpholine and co-solvent, is seen in table 2. The solutions was diluted in water to an end concentration of imidacloprid of 0.4 g/l and the dilution was judged by ocular inspection with the naked eye, and in the table below, the following is used: • +: easily dissolved, • −: permanent crystals. • NS: Non soluble

[3] = Literature value from Adjuvant Newsletter; cited from earlier work

Structure (SMILES): O=[N+]([O-])NC1=NCCN1Cc1ccc(Cl)nc1 [Imidacloprid]
- Dissolution of active ingredient into N-acetyl morpholine (NAM) ([1]; NAM): 26 grams of active ingredient in 100 g solvent
- Dissolution of active ingredient into N-formyl morpholine (NFM) ([1]; NFM): 30 grams of active ingredient in 100 g solvent
- Dissolution of active ingredient into N-propionyl morpholine (NPM) ([1]; NPM): 19 grams of active ingredient in 100 g solvent
- Crystallization upon dilution in water ([2]; NAM, 0% DMF): −
- Crystallization upon dilution in water ([2]; NAM, 0% DMSO): −
- Crystallization upon dilution in water ([2]; NAM, 0% EL): −
- Crystallization upon dilution in water ([2]; NAM, 0% PC): −
- Crystallization upon dilution in water ([2]; NAM, 5% DMF): −
- Crystallization upon dilution in water ([2]; NAM, 5% DMSO): −
- Crystallization upon dilution in water ([2]; NAM, 5% EL): −
- Crystallization upon dilution in water ([2]; NAM, 5% PC): −
- Crystallization upon dilution in water ([2]; NAM, 10% DMF): −
- Crystallization upon dilution in water ([2]; NAM, 10% DMSO): −
- Crystallization upon dilution in water ([2]; NAM, 10% EL): NS
- Crystallization upon dilution in water ([2]; NAM, 10% PC): −
- Crystallization upon dilution in water ([2]; NAM, 15% DMF): −
- Crystallization upon dilution in water ([2]; NAM, 15% DMSO): +
- Crystallization upon dilution in water ([2]; NAM, 15% EL): NS
- Crystallization upon dilution in water ([2]; NAM, 15% PC): −
- Crystallization upon dilution in water ([2]; NAM, 20% DMF): +
- Crystallization upon dilution in water ([2]; NAM, 20% DMSO): +
- Crystallization upon dilution in water ([2]; NAM, 20% EL): NS
- Crystallization upon dilution in water ([2]; NAM, 20% PC): NS
- Crystallization upon dilution in water ([2]; NAM, 25% DMF): +
- Crystallization upon dilution in water ([2]; NAM, 25% DMSO): +
- Crystallization upon dilution in water ([2]; NAM, 25% EL): NS
- Crystallization upon dilution in water ([2]; NAM, 25% PC): NS
- Crystallization upon dilution in water ([2]; NAM, 30% DMF): +
- Crystallization upon dilution in water ([2]; NAM, 30% DMSO): +
- Crystallization upon dilution in water ([2]; NAM, 30% EL): NS
- Crystallization upon dilution in water ([2]; NAM, 30% PC): NS
- Crystallization upon dilution in water ([2]; NAM, 50% DMF): +
- Crystallization upon dilution in water ([2]; NAM, 50% DMSO): +
- Crystallization upon dilution in water ([2]; NAM, 50% EL): NS
- Crystallization upon dilution in water ([2]; NAM, 50% PC): NS
- Crystallization upon dilution in water ([2]; NAM, 95% DMF): +
- Crystallization upon dilution in water ([2]; NAM, 95% DMSO): +
- Crystallization upon dilution in water ([2]; NAM, 95% EL): NS
- Crystallization upon dilution in water ([2]; NAM, 95% PC): NS
- Crystallization upon dilution in water ([2]; NFM, 0% DMF): −
- Crystallization upon dilution in water ([2]; NFM, 0% DMSO): −
- Crystallization upon dilution in water ([2]; NFM, 0% EL): −
- Crystallization upon dilution in water ([2]; NFM, 0% PC): −
- Crystallization upon dilution in water ([2]; NFM, 5% DMF): −
- Crystallization upon dilution in water ([2]; NFM, 5% DMSO): −
- Crystallization upon dilution in water ([2]; NFM, 5% EL): −
- Crystallization upon dilution in water ([2]; NFM, 5% PC): −
- Crystallization upon dilution in water ([2]; NFM, 10% DMF): −
- Crystallization upon dilution in water ([2]; NFM, 10% DMSO): +
- Crystallization upon dilution in water ([2]; NFM, 10% EL): NS
- Crystallization upon dilution in water ([2]; NFM, 10% PC): −
- Crystallization upon dilution in water ([2]; NFM, 15% DMF): +
- Crystallization upon dilution in water ([2]; NFM, 15% DMSO): +
- Crystallization upon dilution in water ([2]; NFM, 15% EL): NS
- Crystallization upon dilution in water ([2]; NFM, 15% PC): +
- Crystallization upon dilution in water ([2]; NFM, 20% DMF): +
- Crystallization upon dilution in water ([2]; NFM, 20% DMSO): +
- Crystallization upon dilution in water ([2]; NFM, 20% EL): NS
- Crystallization upon dilution in water ([2]; NFM, 20% PC): +
- Crystallization upon dilution in water ([2]; NFM, 25% DMF): +
- Crystallization upon dilution in water ([2]; NFM, 25% DMSO): +
- Crystallization upon dilution in water ([2]; NFM, 25% EL): NS
- Crystallization upon dilution in water ([2]; NFM, 25% PC): +
- Crystallization upon dilution in water ([2]; NFM, 30% DMF): +
- Crystallization upon dilution in water ([2]; NFM, 30% DMSO): +
- Crystallization upon dilution in water ([2]; NFM, 30% EL): NS
- Crystallization upon dilution in water ([2]; NFM, 30% PC): NS
- Crystallization upon dilution in water ([2]; NFM, 50% DMF): +
- Crystallization upon dilution in water ([2]; NFM, 50% DMSO): +
- Crystallization upon dilution in water ([2]; NFM, 50% EL): NS
- Crystallization upon dilution in water ([2]; NFM, 50% PC): NS
- Crystallization upon dilution in water ([2]; NFM, 95% DMF): +
- Crystallization upon dilution in water ([2]; NFM, 95% DMSO): +
- Crystallization upon dilution in water ([2]; NFM, 95% EL): NS
- Crystallization upon dilution in water ([2]; NFM, 95% PC): NS
- Crystallization upon dilution in water ([2]; NPM, 0% DMF): −
- Crystallization upon dilution in water ([2]; NPM, 0% DMSO): −
- Crystallization upon dilution in water ([2]; NPM, 0% PC): −
- Crystallization upon dilution in water ([2]; NPM, 5% DMF): NS
- Crystallization upon dilution in water ([2]; NPM, 5% DMSO): NS
- Crystallization upon dilution in water ([2]; NPM, 5% PC): NS
- Crystallization upon dilution in water ([2]; NPM, 10% DMF): NS
- Crystallization upon dilution in water ([2]; NPM, 10% DMSO): NS
- Crystallization upon dilution in water ([2]; NPM, 10% PC): NS
- Crystallization upon dilution in water ([2]; NPM, 15% DMF): NS
- Crystallization upon dilution in water ([2]; NPM, 15% DMSO): NS
- Crystallization upon dilution in water ([2]; NPM, 15% PC): NS
- Crystallization upon dilution in water ([2]; NPM, 20% DMF): NS
- Crystallization upon dilution in water ([2]; NPM, 20% DMSO): NS
- Crystallization upon dilution in water ([2]; NPM, 20% PC): NS
- Crystallization upon dilution in water ([2]; NPM, 25% DMF): NS
- Crystallization upon dilution in water ([2]; NPM, 25% DMSO): −
- Crystallization upon dilution in water ([2]; NPM, 25% PC): NS
- Crystallization upon dilution in water ([2]; NPM, 30% DMF): −
- Crystallization upon dilution in water ([2]; NPM, 30% DMSO): −
- Crystallization upon dilution in water ([2]; NPM, 30% PC): NS
- Crystallization upon dilution in water ([2]; NPM, 50% DMF): +
- Crystallization upon dilution in water ([2]; NPM, 50% DMSO): +
- Crystallization upon dilution in water ([2]; NPM, 50% PC): NS
- Crystallization upon dilution in water ([2]; NPM, 95% DMF): +
- Crystallization upon dilution in water ([2]; NPM, 95% DMSO): +
- Crystallization upon dilution in water ([2]; NPM, 95% EL): NS
- Crystallization upon dilution in water ([2]; NPM, 95% PC): NS
- Dissolution of active ingredient into Lactic acid dimethyl amide [3]: 14 grams of active ingredient in 100 g solvent
